For assay [1], the system named is YAP nuclear translocation in HaCaT cells. As to the kind of experiment: YAP Translocation Assay (HaCaT Cells). The assay is classed as cell-based, human. Conditions: Homo sapiens, 24 hours. In a few lines:
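HaCaT cells (20,000/well) in DMEM + 10% FBS were plated overnight at 37° C, then exposed to compound for 24 h at 37° C. Cells were fixed with PFA, permeabilized with 0.1% Triton/1.5% BSA and imaged by high-content imaging.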

Assay [2] concerns Phospho-YAP (SER127) in HaCaT cells. As to the kind of experiment: pYAP HTRF Assay (HaCaT Cells). The assay is classed as cell-based, human. Conditions: Homo sapiens, 2 hours. In a few lines: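 Phospho-YAP (Ser127) was measured by HTRF (665 nm/620 nm ratio) in HaCaT cells. Cells were grown 48 hours at 37° C at 5500 cells/well, exposed to compound for 2 hours, and incubated with detection reagents for 20 hrs at room temperature.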
Background: Time-resolved FRET reads energy transfer from a long-lived donor to a nearby acceptor.

Assay [3] relates to Phospho-YAP (Ser127) in JHH-5 cells. As to the kind of experiment: pYAP HTRF Assay (JHH-5 cells). Type of assay: cell-based. To be noted: 2 hours. The protocol:
Briefly, JHH-5 cells are suspended at 0.48×10^6 cells/ml in William's E medium without phenol-red (Thermo Fisher Scientific Gibco catalog number A1217601) supplemented with 10% (v/v) heat-inactivated fetal bovine serum (Thermo Fisher Scientific Gibco catalog number 16140071) and penicillin-streptomycin at 100 U/ml each (Thermo Fisher Scientific Gibco catalog number 15140122). Cells are dispensed into 384well clear bottom culture plates (50 ul/well, at 24000 cells per well, Greiner catalog number 781091), and incubated for 24 hours in a cell culture incubator at 37° C. Test compounds are transferred into culture plates containing JHH-5 cells using an Echo550 (Labcyte) acoustic dispenser (50 nl/well), followed by incubation for 2 hours at 37° C. Lysis buffer (part of CisBio kit catalog number 64YAPPEI) is added to the assay plates as a four-fold concentrate (corresponding to 16 ul/well) and incubated for 30 minutes at room temperature with agitation. Lysate is transferred from culture plates into white low-volume 384well assay plates (12 ul/well, Greiner catalog number 784075), followed by the addition of 3 ul/well of detection antibodies (part of CisBio kit catalog number 64YAPPEI: 1:40 dilution of each pYAP d2 antibody and pYAP cryptate antibody stocks). The plates are sealed and incubated overnight (18 hours) at room temperature protected from light. Plates are read on an EnVision plate reader (Perkin Elmer) at emission wavelengths of 665 nm and 620 nm. The HTRF signal ratio x per well is calculated as [x=Signal(665 nm)/Signal(620 nm)×10000] as specified in the manufacturer's protocol.

The target in assay [4] is LATS1 (Homo sapiens (Human), UniProt O95835). Description: LATS1 biochemical assay (Table 1A, Compound Examples 1-290; method in the earlier part).
LATS1, sequence (O95835 whole entry, looked up): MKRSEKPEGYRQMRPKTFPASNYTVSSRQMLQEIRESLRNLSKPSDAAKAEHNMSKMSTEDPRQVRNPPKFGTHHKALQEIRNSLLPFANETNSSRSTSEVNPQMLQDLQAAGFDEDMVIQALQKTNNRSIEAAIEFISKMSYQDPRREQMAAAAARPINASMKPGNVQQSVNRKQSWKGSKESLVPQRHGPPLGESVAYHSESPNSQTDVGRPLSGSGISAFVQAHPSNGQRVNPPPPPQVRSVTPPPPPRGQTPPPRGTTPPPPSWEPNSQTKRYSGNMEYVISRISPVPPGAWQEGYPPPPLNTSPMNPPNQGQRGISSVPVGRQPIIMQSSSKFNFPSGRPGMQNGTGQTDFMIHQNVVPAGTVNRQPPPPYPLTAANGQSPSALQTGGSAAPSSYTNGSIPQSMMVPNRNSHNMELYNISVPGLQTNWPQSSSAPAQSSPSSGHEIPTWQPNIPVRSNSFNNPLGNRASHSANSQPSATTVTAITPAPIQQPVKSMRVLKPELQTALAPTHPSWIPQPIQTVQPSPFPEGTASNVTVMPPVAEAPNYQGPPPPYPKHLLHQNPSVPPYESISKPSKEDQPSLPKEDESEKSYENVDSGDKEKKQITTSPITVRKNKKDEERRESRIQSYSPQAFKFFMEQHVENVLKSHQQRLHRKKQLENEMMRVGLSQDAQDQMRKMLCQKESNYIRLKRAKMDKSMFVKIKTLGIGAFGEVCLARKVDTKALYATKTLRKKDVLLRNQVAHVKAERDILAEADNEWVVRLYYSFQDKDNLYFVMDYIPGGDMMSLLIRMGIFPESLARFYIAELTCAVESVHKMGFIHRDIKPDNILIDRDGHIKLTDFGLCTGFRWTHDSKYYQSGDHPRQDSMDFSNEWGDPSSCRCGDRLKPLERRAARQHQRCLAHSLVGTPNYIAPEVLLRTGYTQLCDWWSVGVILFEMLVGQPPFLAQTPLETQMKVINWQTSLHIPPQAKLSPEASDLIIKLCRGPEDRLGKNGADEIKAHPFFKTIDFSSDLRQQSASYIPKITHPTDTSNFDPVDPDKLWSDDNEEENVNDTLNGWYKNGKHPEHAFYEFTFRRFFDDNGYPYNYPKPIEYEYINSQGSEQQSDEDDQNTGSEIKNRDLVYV
LATS1, sequence (Q7L9L4 whole entry partner, looked up): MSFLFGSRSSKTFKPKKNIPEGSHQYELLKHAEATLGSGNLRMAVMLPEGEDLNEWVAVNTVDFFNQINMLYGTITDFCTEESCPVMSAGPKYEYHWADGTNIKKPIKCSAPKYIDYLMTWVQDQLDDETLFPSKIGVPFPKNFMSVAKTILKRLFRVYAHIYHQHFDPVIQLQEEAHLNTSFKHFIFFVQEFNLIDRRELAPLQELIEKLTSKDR

On to `Cc1cnccc1-c1nc(NC(C)(C)C(F)(F)F)c2ccncc2n1` [Example 157, 2-(3-methylpyridin-4-yl)-N-(1,1,1-trifluoro-2-methylpropan-2-yl)pyrido[3,4-d]pyrimidin-4-amine], for which, in assay [1], the EC50 – broadly, the concentration that produces a half-maximal response – is 3780 nM. The IC50 (commonly the point on the concentration scale where inhibition reaches its midpoint) in assay [2] was found to be 4050 nM; in assay [3], 9200 nM; in assay [4], 6 nM.
The matching figures for `CC(C)(O)C(C)(C)Nc1nc(-c2ccncc2)nc2cnccc12` [Example 71, 2,3-dimethyl-3-{[2-(pyridin-4-yl)pyrido[3,4-d]pyrimidin-4-yl]amino}butan-2-ol]: 1570 nM, 26 nM, > 10000 nM and 4 nM.
On the same counts, the results for `CCC(C)Nc1nc(-c2ccncc2)nc2cnccc12` (stereo not drawn) [Example 68, N-(butan-2-yl)-2-(pyridin-4-yl)pyrido[3,4-d]pyrimidin-4-amine] are 3390 nM, 1230 nM, 3500 nM and 2 nM.
The matching figures for `Cc1n[nH]cc1-c1nc(NC(C)(C)CC(C)(C)O)c2ccncc2n1` [Example 140, 2,4-dimethyl-4-{[2-(3-methyl-1H-pyrazol-4-yl)pyrido[3,4-d]pyrimidin-4-yl]amino}pentan-2-ol]: 2260 nM, 1240 nM, 2200 nM and 4 nM.
As to `CC(C)(Cc1c[nH]c2ccccc12)Nc1nc(-c2ccncc2)nc2cnccc12` [Example 79, N-[1-(1H-indol-3-yl)-2-methylpropan-2-yl]-2-(pyridin-4-yl)pyrido[3,4-d]pyrimidin-4-amine], a half-maximal effect in assay [1] (EC50) was put at 3870 nM. Moreover, the IC50 is 765 nM in assay [2], 2100 nM in assay [3] and 11 nM in assay [4].
The matching figures for `OCCNc1nc(-c2ccncc2)nc2cnccc12` [Example 85, 2-{[2-(pyridin-4-yl)pyrido[3,4-d]pyrimidin-4-yl]amino}ethan-1-ol]: 9810 nM, 31000 nM, > 10000 nM and 25 nM.
The matching figures for `CC(C)N(C)c1nc(-c2ccncc2F)nc2cnccc12` [Example 122, 2-(3-fluoropyridin-4-yl)-N-methyl-N-(propan-2-yl)pyrido[3,4-d]pyrimidin-4-amine]: 5800 nM, 7400 nM, 8000 nM and 15 nM.
On the same counts, the results for `CC(C)(C)Nc1cc(-c2ccnc3[nH]ccc23)nc2cnccc12` [Example 272, N-tert-butyl-2-{1H-pyrrolo[2,3-b]pyridin-4-yl}-1,7-naphthyridin-4-amine] are 5970 nM, 3510 nM, 8100 nM and 2 nM.
Consider `CC(C)(C)Nc1cc(-c2ccnnc2)nc2cnccc12` [Example 273, N-tert-butyl-2-(pyridazin-4-yl)-1,7-naphthyridin-4-amine], for which, in assay [1], the EC50 is > 20000 nM. Moreover, the figures for the IC50 in assay [2], in assay [3] and in assay [4] were > 100000 nM, > 10000 nM and 463 nM, respectively.
The matching figures for `C[C@H](N(C)c1nc(-c2ccncc2F)nc2cnccc12)C(F)(F)F` [Example 136, 2-(3-fluoropyridin-4-yl)-N-methyl-N-[(2S)-1,1,1-trifluoropropan-2-yl]pyrido[3,4-d]pyrimidin-4-amine]: 2960 nM, 1140 nM, 1300 nM and 2 nM.
The matching figures for `CC(C)(O)COCC(C)(C)Nc1cc(-c2ccncc2)nc2cnccc12` [Example 267, 2-methyl-1-(2-methyl-2-{[2-(pyridin-4-yl)-1,7-naphthyridin-4-yl]amino}propoxy)propan-2-ol]: 9750 nM, 7190 nM, 5900 nM and 13 nM.
With `CCN(CC)c1nc(-c2ccncc2)nc2cnccc12` [Example 2], the response in assay [1] was half-maximal at 584 nM (EC50). Also, the 50% inhibitory concentration (IC50) in assay [2] is 67 nM; in assay [3], > 10000 nM; in assay [4] it was 1 nM.
The matching figures for `CCC(C)(C)Nc1cc(-c2ccncc2F)nc2cnccc12` [Example 281, 2-(3-fluoropyridin-4-yl)-N-(2-methylbutan-2-yl)-1,7-naphthyridin-4-amine]: 2890 nM, 656 nM, 5900 nM and 4 nM.
`CC(C)OCC(C)(C)Nc1cc(-c2ccncc2)nc2cnccc12` [Example 255, N-[2-methyl-1-(propan-2-yloxy)propan-2-yl]-2-(pyridin-4-yl)-1,7-naphthyridin-4-amine] yielded an EC50 in assay [1] of 5390 nM. Further, the IC50 in assay [2] is 3180 nM; in assay [3], 7100 nM; in assay [4], 8 nM.
The matching figures for `CC(C)(C)Nc1cc(-c2ccncn2)nc2cnccc12` [Example 270, N-tert-butyl-2-(pyrimidin-4-yl)-1,7-naphthyridin-4-amine]: 873 nM, 423 nM, 800 nM and 2 nM.
On the same counts, the results for `FC(F)(F)C1(Nc2nc(-c3ccncc3)nc3cnccc23)CC1` [Example 64, 2-(pyridin-4-yl)-N-[1-(trifluoromethyl)cyclopropyl]pyrido[3,4-d]pyrimidin-4-amine] are 479 nM, 63 nM, 2100 nM and 1 nM.
The matching figures for `Cc1n[nH]cc1-c1cc(NC(C)(C)C)c2ccncc2n1` [Example 269, N-tert-butyl-2-(3-methyl-1H-pyrazol-4-yl)-1,7-naphthyridin-4-amine]: 438 nM, 294 nM, 800 nM and 1 nM.
With `CC(C)(CCO)Nc1nc(-c2ccncc2)nc2cnccc12` [Example 61, 3-methyl-3-{[2-(pyridin-4-yl)pyrido[3,4-d]pyrimidin-4-yl]amino}butan-1-ol], in assay [1], the midpoint of the response, the EC50, lay at 517 nM. The IC50 in assay [2] amounted to 141 nM; in assay [3] it was 1400 nM; in assay [4], 1 nM.
The matching figures for `CC(C)(C)Nc1cc(-c2ccnc(N)n2)nc2cnccc12` [Example 271, 2-(2-aminopyrimidin-4-yl)-N-tert-butyl-1,7-naphthyridin-4-amine]: 1070 nM, 187 nM, 800 nM and 2 nM.
On the same counts, the results for `CC(C)(C)Nc1nc(-c2ccnc(N)c2)nc2cnccc12` [Example 112, 4-[4-(tert-butylamino)pyrido[3,4-d]pyrimidin-2-yl]pyridin-2-amine] are 3520 nM, 1210 nM, 3200 nM and 2 nM.
The matching figures for `CC(C)(C)Nc1nc(-c2ccncc2)nc2cncc(Cl)c12` [Example 251, N-(tert-butyl)-5-chloro-2-(pyridin-4-yl)pyrido[3,4-d]pyrimidin-4-amine]: 10900 nM, 1960 nM, 1500 nM and 4 nM.
For `CC(C)(CC(=O)O)Nc1nc(-c2ccncc2)nc2cnccc12` [Example 40, 3-methyl-3-{[2-(pyridin-4-yl)pyrido[3,4-d]pyrimidin-4-yl]amino}butanoic acid], the EC50 in assay [1] was > 20000 nM. Moreover, the IC50 in assay [2] is > 10000 nM; in assay [3], > 10000 nM; in assay [4], 328 nM.
`CC(C)(C)Nc1nc(-c2ccncc2Cl)nc2cnccc12` [Example 116, N-tert-butyl-2-(3-chloropyridin-4-yl)pyrido[3,4-d]pyrimidin-4-amine] had a half-maximal effective concentration (EC50) in assay [1] of 2180 nM. Further, the IC50 in assay [2] was 782 nM; in assay [3], 2200 nM; in assay [4], 3 nM.
On the same counts, the results for `CC1(Nc2nc(-c3ccncc3)nc3c(Cl)nccc23)CC1` [Example 198, 8-chloro-N-(1-methylcyclopropyl)-2-(pyridin-4-yl)pyrido[3,4-d]pyrimidin-4-amine] are 3230 nM, 2180 nM, 1300 nM and 1 nM.

These data come from US11458138B2 (Novartis AG, priority 2017, dated 2022).
